Data taken from patent US20090130064A1, “DIFFERENTIATION OF STEM CELLS AND STABILIZATION OF PHENOTYPICAL PROPERTIES OF PRIMARY CELLS” (priority 2004, published 2009).

How the values were obtained:
hMSC = assay: Albumin ELISA, ALB secretion by hMSC; format: cell-based, human; conditions: for ALB secreted: sequential + 1 μM TSA from day 6
Procedure: Low-density hMSC (CD45^−, Thy^+) were cultivated at 21.5 10^3 cells cm^2 on 1 mg/ml collagen gel type I matrix in the presence of liver-specific (LSP) cytokines, added either as a cocktail [basal medium supplemented with 10 ng/ml FGF-4 (fibroblast growth factor type 4), 20 ng/ml HGF (hepatic growth factor) (all from R&D), 1×ITS (insulin, transferrin, selenious acid) and 0.05 μM Dex (dexamethasone) (all from Sigma)] or sequentially [basal medium supplemented with 10 ng/ml FGF-4, following basal media supplemented with 20 ng/ml HGF (R&D) and finally basal medium supplemented with 20 ng/ml HGF, 1×ITS and 0.05 μM Dex]. Basal medium consisted of 60% (v/v) DMEM-LG/40% (v/v) MCDB-201 supplemented with 1 mg/ml LA-BSA, 100 IU/ml penicillin, 100 μg/ml streptomycin, 0.1 mM L-ascorbic acid, 4 μg/ml nicotinamide, 27.3 mg/l sodium-pyruvate and 1.623 mM glutamin (all from Sigma). The media were changed every three days.
ALB concentrations secreted into the media were analysed by a competitive enzyme-linked immunosorbent assay (ELISA) as described (Koebe et al. Int J Artif Organs 17: 95-106, 1994). The ALB levels were normalized with respect to the media used.

CYP 1A1 = CYP 1A1 activity (ethoxyresorufin conversion) in cultured rat hepatocytes; format: cell-based
Excerpt: (§1) Hepatocytes were isolated from male Sprague-Dawley rats by a two-step collagenase perfusion as described (De Smet et al. In ‘Methods in Molecular Biology, Vol. 107: Cytochrome P450 Protocols’, Philips IR and Shephard E A, eds., p.p 295-301, Humana Press, Totowa, 1998). Hepatocytes were cultivated in monolayer cultures with Willam's E Medium (WE) for 7 days. […] The maintenance of differentiation characteristics was studied after 2, 4, and 7 days (D2, D4, D7) of culture.
Phase I biotransformation was assessed by means of activity measurements of the microsomal cytochrome P450 (CYP) 1A1 and 2B1/2 iso-enzymes, using standard techniques known in the art (i.e., measuring conversion of ethoxyresorufin into hydroxyresorufin for CYP 1A1 and conversion of penthoxyresorufin to hydroxyresorufin for CYP 2B1/2) (Burke et al. Drug Metab Dispos 2:583-588, 1974). Microsomes were prepared from freshly isolated and hepatocytes cultured for 7 days according to Hales et al. (Biochem Pharmacol 26:555-556, 1977).

[1] = test system: glutathione S-transferase (GST); assay: Total cytosolic GST activity in cultured rat hepatocytes; format: cell-based; conditions: TSA starting at 4 hours; day 4 and 7
Excerpt: as §1
In order to investigate Phase II biotransformation, total cytosolic glutathione S-transferase (GST) activity and activities of individual GSTA, GSTP, and GSTM iso-enzymes were measured using standard techniques known in the art. (i.e., measuring conjugation of reduced glutathione with 1-chloro-2,4-dinitrobenzene for total GST; measuring conjugation of reduced glutathione with 7-chloro-4-nitrobenzo-2-oxa-1,3-diazole for GSTA activity; measuring conjugation of reduced glutathione with ethacrynic acid for GSTP activity; and measuring conjugation of reduced glutathione with 1,2-dichloro-4-nitrobenzene for GSTM activity).

histone H4 = assay: Acetylated histone H4 by immunocytochemistry in rat hepatocytes; format: cell-based; conditions: 1 μM TSA
Procedure: In all conditions, the hepatocytes were cultivated as a monolayer configuration, and samples were taken at days 1, 4 and 7 (D1, D4, D7) of the cultivation time.
Hepatocytes were fixed with cold ethanol, peremeabilised with Triton X-100 (Sigma) and blocked with non-fatty milk. Following incubation with appropriate concentrations of primary and secondary antibodies (FITC or TRITC labeled), samples were mounted with DAPI-containing Vectashield (Vector Laboratories). Detection was performed by fluorescence microscopy (Leica DMR/XA).

ribosomal S6 subunit = assay: Western blotting of S6 phosphorylation in synchronized hepatocytes; format: cell-based, rat; conditions: 50 μM
Procedure: Total cell extracts were prepared as described previously (Papeleu et al. J Hepatol 39: 374-382, 2003) and proteins (25 or 50 μg per lane) were separated electrophoretically by SDS-PAGE and electroblotted onto nitrocellulose membranes (Amersham Pharmacia Biotech, Buckinghamshire, UK). Equal sample loading was verified by immersion of the membranes in Ponceau S. Unspecific binding sites were blocked with 5% skim milk/Tris-buffered saline. Incubations with primary antibodies were performed overnight at 4° C. under gentle shaking. Proteins were detected using the ECL detection system (Amersham Pharmacia Biotech, Buckinghamshire, UK) according to the manufacturer's recommendations.
Early cell cycle events can be triggered by distinct signalling pathways, activated by EGF, namely: the MEK/ERK, the mTOR/p70S6k, and the Pak1 pathways. Eventually, they all converge on cyclin D1 and play thus an essential role in the regulation of this critical cell cycle protein. […] This was done by culturing the hepatocytes in the absence of EGF for 48 hours, consequently stimulating them with EGF and exposing them to 50 μM 4-Me2N-BAVAH for 0.5, 1 and 3 hours before harvesting. Shortly after stimulation of synchronized primary hepatocytes with EGF, a rapid and sustained phosphorylation of ERK1/2 was observed (FIG. 20A). […]

rat hepatocytes = assay: Lactate dehydrogenase index and morphology in cultured rat hepatocytes; format: cell-based; conditions: 50 μM
Procedure: The % LDH leakage of the cells was calculated as the result of the ratio: [100×LDH activity in supernatant]/[LDH activity in (supernatant+cells)]
Medium samples were collected at 72 hours of culture and analyzed for their albumin content by an enzyme-linked immunosorbent assay (ELISA) as described (Dunn et al. Biotechnol Prog 7: 237-245, 1991) Cell morphology was analyzed by light microscopy (×100). Pictures were taken using an Optiphot Nikon Phase Contrast microscope (Cetec, Brussels, Belgium).

primary rat hepatocytes = assay: De novo protein synthesis by [3H]-leucine incorporation; format: cell-based; conditions: co-treatment with EGF
Procedure: De novo protein synthesis was determined by [^3H]-leucine incorporation. [^3H]-Leucine (2 μCi/ml final concentration) was added to the hepatocyte cultures 68 hours after plating. Four hours later, cells were washed twice with ice-cold PBS and lyzed in 40% cold trichloroacetic acid. After 2 additional washes in 10% cold trichloroacetic acid, the pellet was solubilized in NaOH (0.1N). The amount of [^3H]-leucine was subsequently measured by liquid scintillation.

HDAC = conditions: cited from earlier work

Compound	ALB secretion (hMSC; cocktail + 1 μM TSA, not significant)	ALB levels (hMSC; conditioned medium, sequential + TSA, day 17) [µg/mL]	difference in ALB secretion between cells with and without TSA (hMSC; conditioned medium, sequential, TSA day 0 until HGF, day 15) [fold]	ALB secreted (hMSC; day 15) [µg/mL]	ALB secreted (hMSC; day 17) [µg/mL]	activity of CYP 1A1 versus EtOH-treated controls (CYP 1A1; 1 μM TSA starting at 0 h or 4 h, day 4 and 7)	CYP 1A1/2 Activity (CYP 1A1; 7-day conventionally cultured adult rat hepatocytes, 1 μm TSA)	total GST activity versus EtOH treated controls [1]	acetylation of histone H4 (histone H4)	S6 phosphorylation (ribosomal S6 subunit)	cytotoxicity (LDH leakage, morphology) (rat hepatocytes)	de novo protein synthesis (primary rat hepatocytes)	HDAC inhibition, concentration range (HDAC)
CC(C=CC(=O)NO)=CC(C)C(=O)c1ccc(N(C)C)cc1 (stereo not shown) [TSA]	upregulation	2.26 ± 0.092	2.28	2.019 ± 0.144	3.456 ± 0.08	significantly higher	4.3 ± 0.6 pmol resorufin/minute mg microsomal protein	significantly higher	hyperacetylation				
CN(C)c1ccc(C(=O)NCCCCC(=O)NO)cc1 [4-Me2N-BAVAH, 5-(4-dimethylaminobenzoyl)-aminovaleric acid hydroxamide]										only a minor increase	not due to cytotoxicity	not further enhanced	micromolar range
